According to patent US20100267784A1, “NOVEL 4,5-DIHYDROISOXAZOLES WITH ESTROGENIC ACTIVITY” (priority 2007, published 2010):

Experiments:
ERα = biological target: T1, ERα (Homo sapiens, UniProt P03372); experiment: ERα reporter (luciferase) transactivation assay in transfected HEK293 cells; format: cell-based; set-up: expressed in transfected cells; host or cells: HEK293; details: sample concentration 10 μM, 24 hours, mean of at least three independent transfections
T1 sequence (P03372 1-595): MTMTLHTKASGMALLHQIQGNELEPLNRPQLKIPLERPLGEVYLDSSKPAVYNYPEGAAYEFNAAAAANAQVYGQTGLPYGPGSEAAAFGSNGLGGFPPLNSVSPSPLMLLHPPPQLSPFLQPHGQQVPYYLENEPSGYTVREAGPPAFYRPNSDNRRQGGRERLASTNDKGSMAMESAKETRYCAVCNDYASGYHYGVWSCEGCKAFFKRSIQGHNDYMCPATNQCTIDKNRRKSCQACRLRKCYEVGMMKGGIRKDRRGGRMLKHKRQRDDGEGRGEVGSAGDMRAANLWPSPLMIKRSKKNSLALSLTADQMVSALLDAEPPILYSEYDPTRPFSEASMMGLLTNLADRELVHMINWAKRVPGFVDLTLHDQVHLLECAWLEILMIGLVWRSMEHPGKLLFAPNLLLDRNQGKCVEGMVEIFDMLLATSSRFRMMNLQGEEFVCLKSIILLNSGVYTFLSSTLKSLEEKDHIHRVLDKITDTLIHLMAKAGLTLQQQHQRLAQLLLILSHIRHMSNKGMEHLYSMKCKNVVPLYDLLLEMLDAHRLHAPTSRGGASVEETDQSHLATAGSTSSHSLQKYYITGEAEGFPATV
Description: (§1) Determination of the Estrogen Activity of the Compounds: Cell Culture, Transfection and Reporter Assays
(§2) All other reagents were of reagent grade from Sigma or Fluka. One day before transfection, HEK293 cells were seeded in 48-well plates (70×10^3 cells per well) in phenol-free Dulbecco's modified Eagle medium supplemented with 5% delipidated fetal bovine serum (Sigma) and antibiotics. After a medium change, the cells were transfected for 4 hours with 5 ng ERα or ERβ expression vector, 75 ng reporter plasmid pERE2TATA-LUC and 20 ng control plasmid pCMVβ by the calcium phosphate method. After transfection, the cells received fresh medium containing either vehicle (0.1% v/v) or test compound (10 μM). After 24 hours, the cells were washed, lysed and luciferase and β-galactosidase activities were determined from 20 μl of lysates with the Victor^2TM reader (PerkinElmer Wallac, Turku, Finland). […] The data are means ±SEM of at least three independent transfections.

ERβ = ERβ (Homo sapiens, UniProt Q92731); experiment: ERβ reporter (luciferase) transactivation assay in transfected HEK293 cells; format: cell-based; set-up: expressed in transfected cells; host or cells: HEK293; details: for ERβ receptor activation relative to 10 nM E2 corresponding 100: sample concentration 10 μM, 24 hours, mean of at least three independent transfections; for activation at 10 µM: HEK293, 24 h, read-out: ERβ receptor activation relative to 10 nM E2 corresponding 100, sample concentration 10 μM, mean of at least three independent transfections
Chain of ERβ (Q92731 whole entry): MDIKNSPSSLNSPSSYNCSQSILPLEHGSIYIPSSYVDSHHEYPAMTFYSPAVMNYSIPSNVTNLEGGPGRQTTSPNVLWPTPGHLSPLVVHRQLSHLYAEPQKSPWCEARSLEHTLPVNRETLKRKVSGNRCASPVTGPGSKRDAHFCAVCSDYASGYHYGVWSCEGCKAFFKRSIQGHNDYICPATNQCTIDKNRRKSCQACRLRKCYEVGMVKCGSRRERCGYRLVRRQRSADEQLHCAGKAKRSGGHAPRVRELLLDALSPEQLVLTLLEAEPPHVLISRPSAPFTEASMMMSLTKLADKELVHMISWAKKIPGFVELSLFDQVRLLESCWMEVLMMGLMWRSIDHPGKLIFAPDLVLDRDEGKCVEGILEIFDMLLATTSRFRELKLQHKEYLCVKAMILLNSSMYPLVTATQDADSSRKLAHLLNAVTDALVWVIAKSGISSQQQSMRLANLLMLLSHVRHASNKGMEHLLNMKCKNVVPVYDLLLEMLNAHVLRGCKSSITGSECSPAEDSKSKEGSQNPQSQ
Description: as §1, §2

SMILES | ERα receptor activation relative to 10 nM E2 corresponding 100 (ERα) [%] | ERβ receptor activation relative to 10 nM E2 corresponding 100 (ERβ) [%] | activation at 10 µM (ERβ) [%]
Oc1ccc(CCC2=NOC(Cc3ccc(F)cc3)C2)cc1 (single isomer, unassigned) [98b, 5-(4-Fluoro-benzyl)-3-[2-(4-hydroxy-phenyl)-ethyl]-4,5-dihydro-isoxazole] | 5.7 | 4.4 | 
CC1(c2ccccc2)CC(CCc2ccccc2)=NO1 (single isomer, unassigned) [71a, 5-Methyl-3-phenethyl-5-phenyl-4,5-dihydroisoxazole] | 8.1 | −20.0 | 
Oc1ccc(CC2CC(CCCc3ccc(O)c(O)c3)=NO2)cc1 (single isomer, unassigned) [103a, 3-[3-(3,4-Dihydroxy-phenyl)-propyl]-5-(4-hydroxy-benzyl)-4,5-dihydro-isoxazole] | 1.7 | −1.1 | 
Fc1ccc(CC2CC(CCc3ccccc3)=NO2)cc1 (single isomer, unassigned) [66a, 5-(4-fluorobenzyl)-3-phenethyl-4,5-dihydroisoxazole] | 99.2 |  | 11.2
COc1ccc(CC2CC(CCc3ccccc3)=NO2)cc1 (single isomer, unassigned) [65a, 5-(4-Methoxybenzyl)-3-phenethyl-4,5-dihydroisoxazole] | 0.8 | 10.6 | 
Oc1ccc(CCC2=NOC(Cc3ccc(F)cc3)C2)cc1 (single isomer, unassigned) [98a, 5-(4-Fluoro-benzyl)-3-[2-(4-hydroxy-phenyl)-ethyl]-4,5-dihydro-isoxazole] | 77.8 | 28.4 | 
c1ccc(CCC2=NOC(c3ccccc3)C2)cc1 (single isomer, unassigned) [110a, 3-Phenethyl-5-phenyl-4,5-dihydroisoxazole] | 16.4 |  | 9.8
COc1ccc(C2=NOC(Cc3ccccc3)C2)cc1 (single isomer, unassigned) [12a, 5-Benzyl-3-(4-methoxyphenyl)-4,5-dihydroisoxazole] | 55.2 | 17.2 | 
Oc1ccccc1CCC1=NOC(Cc2ccccc2)C1 (single isomer, unassigned) [91a, 5-Benzyl-3-[2-(2-hydroxy-phenyl)-ethyl]-4,5-dihydro-isoxazole] | 104.8 |  | 19.2
Oc1ccccc1CCC1=NOC(Cc2ccccc2)C1 (single isomer, unassigned) [91b, 5-Benzyl-3-[2-(2-hydroxy-phenyl)-ethyl]-4,5-dihydro-isoxazole] | 39.7 | 30.5 | 
c1ccc(CC2CC(c3ccccc3)=NO2)cc1 (single isomer, unassigned) [107b, 5-Benzyl-3-phenyl-4,5-dihydroisoxazole] | 47.2 | 12.8 | 
c1ccc(CCCC2=NOC(Cc3ccccc3)C2)cc1 (single isomer, unassigned) [114b, 5-Benzyl-3-(3-phenyl-propyl)-4,5-dihydro-isoxazole] | 28.1 | 5.1 | 
c1ccc(CCCC2=NOC(Cc3ccccc3)C2)cc1 (single isomer, unassigned) [114a, 5-Benzyl-3-(3-phenyl-propyl)-4,5-dihydro-isoxazole] | 31.3 | 13.6 | 
COc1ccc(CC2CC(CCc3ccccc3)=NO2)cc1 (single isomer, unassigned) [65b, 5-(4-Methoxybenzyl)-3-phenethyl-4,5-dihydroisoxazole] | 16.1 |  | 13.2
